In ChEMBL document CHEMBL5518240 (J Med Chem, 2024):

Tests used:
[1] = tested on: VCaP; assay: Potency index, ratio of GNE-049 IC50 to test compound IC50 for antiproliferative activity against AR positive human VCaP cells assessed inhibition of cell growth measured after 4 days by CellTiter-Glo Luminescent cell viability assay; format: functional; conditions: time 4 day
[2] = molecular target: T1, Protein cereblon/Histone acetyltransferase p300 (Homo sapiens, UniProt Q09472+Q96SW2); assay: PROTAC activity at p300/CRBN in AR positive human VCaP cells assessed as maximal protein degradation at 333 nM incubated for 4 hrs by Western blot analysis relative to control; format: cell-based
[3] = tested on: LNCaP; assay: Antiproliferative activity against AR positive human LNCaP cells assessed inhibition of cell growth measured after 4 days by CellTiter-Glo Luminescent cell viability assay; format: functional, cell-based; conditions: 96 h
[4] = Reduction in c-Myc gene expression in AR positive human VCaP cells assessed as reduction in mRNA level at 1 nM measured after 6 hrs by qRT-PCT analysis relative to control; format: functional
[5] = molecular target: T2, Protein cereblon/CREB-binding protein (Homo sapiens, UniProt Q92793+Q96SW2); assay: In vivo PROTAC activity at CBP/CRBN in human VCaP cells xenografted in SCID mouse assessed as reduction in CBP protein at 3 mg/kg, po measured after 3 hrs; format: functional, organism-based; set-up: scale not given: the % may be the effect or the level left
Target sequence in this assay (Q92793 2-2442 limits assumed): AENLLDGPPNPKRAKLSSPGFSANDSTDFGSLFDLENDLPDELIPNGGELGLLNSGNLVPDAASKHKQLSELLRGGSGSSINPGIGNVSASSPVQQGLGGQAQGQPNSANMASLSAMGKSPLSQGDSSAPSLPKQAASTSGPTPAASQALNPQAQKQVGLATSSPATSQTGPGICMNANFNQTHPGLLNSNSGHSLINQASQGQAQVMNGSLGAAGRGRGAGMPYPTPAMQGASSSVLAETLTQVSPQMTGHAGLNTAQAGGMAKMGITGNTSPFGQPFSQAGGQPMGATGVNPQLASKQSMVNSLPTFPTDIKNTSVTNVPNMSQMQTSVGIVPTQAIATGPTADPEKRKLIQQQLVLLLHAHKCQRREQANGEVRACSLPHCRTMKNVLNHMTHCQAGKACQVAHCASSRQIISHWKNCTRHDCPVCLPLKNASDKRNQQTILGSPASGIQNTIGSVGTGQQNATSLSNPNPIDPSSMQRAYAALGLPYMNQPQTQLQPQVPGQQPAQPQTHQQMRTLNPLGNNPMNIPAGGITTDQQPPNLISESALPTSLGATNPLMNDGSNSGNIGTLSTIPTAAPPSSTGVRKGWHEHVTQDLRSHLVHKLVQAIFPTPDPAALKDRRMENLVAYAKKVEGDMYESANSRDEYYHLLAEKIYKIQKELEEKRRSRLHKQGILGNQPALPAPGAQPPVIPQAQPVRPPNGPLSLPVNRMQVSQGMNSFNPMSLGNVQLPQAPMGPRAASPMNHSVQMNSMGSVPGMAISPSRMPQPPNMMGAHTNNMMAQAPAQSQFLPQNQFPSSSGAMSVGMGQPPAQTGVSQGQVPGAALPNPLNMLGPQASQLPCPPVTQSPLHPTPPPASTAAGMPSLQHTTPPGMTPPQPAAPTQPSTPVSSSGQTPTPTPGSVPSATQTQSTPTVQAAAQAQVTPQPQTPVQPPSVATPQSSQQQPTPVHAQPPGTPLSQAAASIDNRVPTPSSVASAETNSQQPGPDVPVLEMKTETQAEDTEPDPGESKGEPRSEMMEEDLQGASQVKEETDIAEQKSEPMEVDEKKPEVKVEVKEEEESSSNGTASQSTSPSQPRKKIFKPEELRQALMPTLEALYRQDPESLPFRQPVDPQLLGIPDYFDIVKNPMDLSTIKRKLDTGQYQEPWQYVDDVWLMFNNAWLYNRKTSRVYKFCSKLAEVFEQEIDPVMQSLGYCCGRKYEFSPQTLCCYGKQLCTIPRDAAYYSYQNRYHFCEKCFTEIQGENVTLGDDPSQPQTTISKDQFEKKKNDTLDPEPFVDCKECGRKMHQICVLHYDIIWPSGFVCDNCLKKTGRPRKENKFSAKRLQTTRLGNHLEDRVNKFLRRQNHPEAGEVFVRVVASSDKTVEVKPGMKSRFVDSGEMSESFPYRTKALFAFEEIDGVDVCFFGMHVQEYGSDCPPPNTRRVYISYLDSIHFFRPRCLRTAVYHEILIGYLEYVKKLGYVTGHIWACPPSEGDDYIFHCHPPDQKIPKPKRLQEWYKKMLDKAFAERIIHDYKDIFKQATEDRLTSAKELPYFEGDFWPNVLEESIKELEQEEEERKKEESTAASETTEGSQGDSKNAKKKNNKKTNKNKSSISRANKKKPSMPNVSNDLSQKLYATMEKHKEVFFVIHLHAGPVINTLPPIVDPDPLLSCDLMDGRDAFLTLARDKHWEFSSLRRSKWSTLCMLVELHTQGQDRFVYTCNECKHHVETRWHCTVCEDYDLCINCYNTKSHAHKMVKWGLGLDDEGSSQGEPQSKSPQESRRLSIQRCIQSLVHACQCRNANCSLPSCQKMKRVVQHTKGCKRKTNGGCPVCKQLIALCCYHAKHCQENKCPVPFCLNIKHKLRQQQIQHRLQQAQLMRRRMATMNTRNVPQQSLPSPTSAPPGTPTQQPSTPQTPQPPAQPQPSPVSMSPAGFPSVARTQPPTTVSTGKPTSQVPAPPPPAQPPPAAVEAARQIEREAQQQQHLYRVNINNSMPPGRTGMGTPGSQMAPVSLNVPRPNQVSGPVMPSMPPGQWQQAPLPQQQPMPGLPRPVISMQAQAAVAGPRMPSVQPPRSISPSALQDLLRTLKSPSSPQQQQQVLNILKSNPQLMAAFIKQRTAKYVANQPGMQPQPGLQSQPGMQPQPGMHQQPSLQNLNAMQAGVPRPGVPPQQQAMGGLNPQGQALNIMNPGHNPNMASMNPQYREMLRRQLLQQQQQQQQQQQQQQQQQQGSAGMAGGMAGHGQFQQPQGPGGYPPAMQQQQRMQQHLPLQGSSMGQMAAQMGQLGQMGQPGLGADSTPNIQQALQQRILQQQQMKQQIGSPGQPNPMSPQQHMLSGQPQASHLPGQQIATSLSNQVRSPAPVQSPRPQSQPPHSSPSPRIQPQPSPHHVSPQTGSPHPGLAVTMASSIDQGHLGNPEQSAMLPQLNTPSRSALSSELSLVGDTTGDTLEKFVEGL
Target sequence in this assay (Q96SW2 whole entry partner): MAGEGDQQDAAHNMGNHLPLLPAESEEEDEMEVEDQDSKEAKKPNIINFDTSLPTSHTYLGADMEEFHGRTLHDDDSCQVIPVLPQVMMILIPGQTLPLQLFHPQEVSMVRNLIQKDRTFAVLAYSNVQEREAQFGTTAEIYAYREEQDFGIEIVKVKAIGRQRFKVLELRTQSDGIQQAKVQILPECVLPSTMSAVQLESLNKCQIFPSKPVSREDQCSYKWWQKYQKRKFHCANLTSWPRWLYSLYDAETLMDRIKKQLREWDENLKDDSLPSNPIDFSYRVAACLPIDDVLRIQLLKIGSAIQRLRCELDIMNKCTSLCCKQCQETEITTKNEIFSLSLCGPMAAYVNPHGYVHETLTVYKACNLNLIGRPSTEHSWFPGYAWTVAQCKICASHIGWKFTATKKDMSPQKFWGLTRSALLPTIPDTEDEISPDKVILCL

[6] = molecular target: T2, Protein cereblon/CREB-binding protein; assay: PROTAC activity at CBP/CRBN in human 22Rv1 cells assessed as protein degradation incubated for 4 hrs by Western blot analysis; format: cell-based
[7] = Half life in male ICR mouse at 3 mg/kg, po measured upto 24 hrs by LC-MS/MS analysis; format: ADME, organism-based; conditions: in vivo
[8] = molecular target: T1, Protein cereblon/Histone acetyltransferase p300; assay: PROTAC activity at p300/CRBN in human VCaP cells assessed as protein degradation incubated for 4 hrs by Western blot analysis; format: cell-based
[9] = tested on: VCaP; assay: Antitumor activity against human VCaP cells xenografted in CB17 SCID mouse model assessed as tumor growth inhibition at 1 mg/kg, po qod scheduled 5 days in a week measured on day 63; format: functional; conditions: 1512 h, time 63 day, read-out: TGI
[10] = tested on: VCaP; assay: Reduction in AR gene expression in AR positive human VCaP cells assessed as reduction in mRNA level measured after 6 hrs by qRT-PCT analysis relative to control; format: functional, cell-based; conditions: dose 0.1-1000 nM
[11] = tested on: LNCaP; assay: Reduction in AR gene expression in AR positive human LNCaP cells assessed as reduction in mRNA level measured after 6 hrs by qRT-PCT analysis relative to control; format: functional, cell-based; conditions: dose 0.1-1000 nM
[12] = Reduction in c-Myc gene expression in AR positive human 22Rv1 cells assessed as reduction in mRNA level at 10 nM measured after 6 hrs by qRT-PCT analysis relative to control; format: functional, CWR22R
[13] = molecular target: T1, Protein cereblon/Histone acetyltransferase p300; assay: PROTAC activity at p300/CRBN in human 22Rv1 cells assessed as protein degradation incubated for 4 hrs by Western blot analysis; format: cell-based
[14] = tested on: VCaP; assay: Antiproliferative activity against AR positive human VCaP cells assessed inhibition of cell growth measured after 4 days by CellTiter-Glo Luminescent cell viability assay; format: functional, cell-based; conditions: 96 h
[15] = molecular target: T1, Protein cereblon/Histone acetyltransferase p300; assay: PROTAC activity at p300/CRBN in AR positive human VCaP cells assessed as maximal protein degradation at 37 nM incubated for 4 hrs by Western blot analysis relative to control; format: cell-based
[16] = molecular target: T2, Protein cereblon/CREB-binding protein; assay: PROTAC activity at CBP/CRBN in human VCaP cells assessed as maximal protein degradation at 1 uM incubated for 4 hrs by Western blot analysis relative to control; format: cell-based
Target sequence in this assay (Q92793 2-2442 limits assumed): as the sequence (Q92793 2-2442 limits assumed) above
Target sequence in this assay (Q96SW2 whole entry partner): as the sequence (Q96SW2 whole entry partner) above

[17] = Plasma concentration in CB17 SCID mouse xenografted with human VCaP cells at 1 mg/kg, po measured after 3 hrs by LC-MS/MS analysis; format: ADME, organism-based
[18] = molecular target: T2, Protein cereblon/CREB-binding protein; assay: In vivo PROTAC activity at p300/CRBN in human VCaP cells xenografted in CB17 SCID mouse assessed as reduction in CBP protein at 3 mg/kg, po measured after 3 hrs; format: functional, organism-based; set-up: scale not given: the % may be the effect or the level left
Target sequence in this assay (Q92793 2-2442 limits assumed): as the sequence (Q92793 2-2442 limits assumed) above
Target sequence in this assay (Q96SW2 whole entry partner): as the sequence (Q96SW2 whole entry partner) above

[19] = Half life in male ICR mouse at 1 mg/kg, iv measured upto 24 hrs by LC-MS/MS analysis; format: ADME, organism-based; conditions: in vivo
[20] = molecular target: T2, Protein cereblon/CREB-binding protein; assay: PROTAC activity at CBP/CRBN in human LNCaP cells assessed as maximal protein degradation at 1 uM incubated for 4 hrs by Western blot analysis relative to control; format: cell-based
Target sequence in this assay (Q92793 2-2442 limits assumed): as the sequence (Q92793 2-2442 limits assumed) above
Target sequence in this assay (Q96SW2 whole entry partner): as the sequence (Q96SW2 whole entry partner) above

[21] = tested on: CWR22R; assay: Reduction in KLK3 gene expression in AR positive human 22Rv1 cells assessed as reduction in mRNA level measured after 6 hrs by qRT-PCT analysis relative to control; format: functional, cell-based; conditions: dose 0.1-1000 nM
[22] = molecular target: T2, Protein cereblon/CREB-binding protein; assay: PROTAC activity at CBP/CRBN in human 22Rv1 cells assessed as maximal protein degradation at 1 uM incubated for 4 hrs by Western blot analysis relative to control; format: cell-based
Target sequence in this assay (Q92793 2-2442 limits assumed): as the sequence (Q92793 2-2442 limits assumed) above
Target sequence in this assay (Q96SW2 whole entry partner): as the sequence (Q96SW2 whole entry partner) above

[23] = Toxicity in CB17 SCID mouse xenografted with human VCaP cells assessed as weight loss at 0.3 to 1 mg/kg, po qd scheduled 5 days in a week measured on day 63; format: organism-based; conditions: in vivo, 1512 h, dose 0.3-1 mg/kg, time 63 day
[24] = tested on: VCaP; assay: Potency index, ratio of ARV-110 IC50 to test compound IC50 for antiproliferative activity against AR positive human VCaP cells assessed inhibition of cell growth measured after 4 days by CellTiter-Glo Luminescent cell viability assay; format: functional; conditions: time 4 day

## CC(=O)N1CCc2c(c(N3CCCc4cc(-c5cnn(C)c5)c(C(F)F)cc43)nn2[C@H]2CC[C@H](CN3CCN(c4ccc5c(c4)C(=O)N(C4CCC(=O)NC4=O)C5=O)CC3)CC2)C1 (some centres undefined)
[1]
  Ratio IC50: 100
[2]
  Activity: 94%
[3]
  IC50: 1.6 nM
[4]
  inhibition at 0.001 µM: > 95%
[5]
  Activity: > 95%
[6]
  DC50: 0.2 nM
[7]
  half-life: 2.6 h
[8]
  DC50: 0.2 nM
[9]
  inhibition in vivo at 1 mg/kg: 71%
[10]
  inhibition: Dose-Dependent Effect
[11]
  inhibition: Dose-Dependent Effect
[12]
  inhibition at 0.01 µM: > 95%
[13]
  DC50: 0.4 nM
[14]
  IC50: 2 nM
[15]
  Activity: 100%
[16]
  Emax: > 95%
[17]
  concentration at 3 h: 95 ng/mL
[18]
  Activity: > 95%
[19]
  half-life: 2.8 h
[20]
  Emax: 90%
[21]
  inhibition: Dose-Dependent Effect
[22]
  Emax: 93%
[23]
  Activity: Non-Toxic
[24]
  Ratio IC50: >50
